# Test results published in ChEMBL document CHEMBL5291721, “A preclinical secondary pharmacology resource illuminates target-adverse drug reaction associations of marketed drugs” (Nat Commun, 2023).
# Experiments:
# [1] = target: T1, Muscarinic acetylcholine receptor M1 (Homo sapiens, UniProt P11229); format: functional
# T1 sequence (P11229 whole entry): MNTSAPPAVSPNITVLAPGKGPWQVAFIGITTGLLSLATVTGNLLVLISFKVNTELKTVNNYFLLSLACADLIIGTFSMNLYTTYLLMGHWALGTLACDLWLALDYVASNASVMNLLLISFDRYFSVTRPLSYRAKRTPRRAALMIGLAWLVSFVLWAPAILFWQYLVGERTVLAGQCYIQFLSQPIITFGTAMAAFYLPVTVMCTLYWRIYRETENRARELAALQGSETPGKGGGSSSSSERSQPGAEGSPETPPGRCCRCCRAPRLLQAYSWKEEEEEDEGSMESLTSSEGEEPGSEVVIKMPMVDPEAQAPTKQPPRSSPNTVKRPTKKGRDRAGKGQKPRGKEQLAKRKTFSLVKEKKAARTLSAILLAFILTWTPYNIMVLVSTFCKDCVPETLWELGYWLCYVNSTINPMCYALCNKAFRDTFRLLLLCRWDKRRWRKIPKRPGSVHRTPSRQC
# Vasopressin V2 receptor = Vasopressin V2 receptor (Homo sapiens, UniProt P30518)
# Chain of Vasopressin V2 receptor (P30518 whole entry): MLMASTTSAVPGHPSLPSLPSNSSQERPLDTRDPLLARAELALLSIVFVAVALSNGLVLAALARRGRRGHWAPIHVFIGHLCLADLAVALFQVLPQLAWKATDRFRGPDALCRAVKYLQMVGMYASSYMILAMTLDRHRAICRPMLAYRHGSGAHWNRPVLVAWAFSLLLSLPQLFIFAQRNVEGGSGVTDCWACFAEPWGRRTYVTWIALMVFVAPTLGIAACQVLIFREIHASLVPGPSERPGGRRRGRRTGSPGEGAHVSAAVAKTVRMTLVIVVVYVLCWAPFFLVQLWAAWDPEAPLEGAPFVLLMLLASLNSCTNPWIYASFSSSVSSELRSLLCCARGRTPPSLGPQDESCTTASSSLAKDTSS
# Histamine H2 receptor = Histamine H2 receptor (Homo sapiens, UniProt P25021); format: functional, cell-based
# Chain of Histamine H2 receptor (P25021 whole entry): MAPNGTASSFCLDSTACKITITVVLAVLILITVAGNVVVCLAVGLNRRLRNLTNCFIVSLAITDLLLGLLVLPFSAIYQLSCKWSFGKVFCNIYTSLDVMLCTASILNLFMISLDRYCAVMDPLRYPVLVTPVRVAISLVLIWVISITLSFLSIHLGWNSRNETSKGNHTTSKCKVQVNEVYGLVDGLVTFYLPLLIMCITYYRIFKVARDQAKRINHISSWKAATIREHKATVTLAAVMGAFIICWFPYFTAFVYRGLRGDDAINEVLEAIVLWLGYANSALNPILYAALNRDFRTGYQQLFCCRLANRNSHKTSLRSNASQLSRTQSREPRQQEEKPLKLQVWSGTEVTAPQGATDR
# [2] = target: T2, Alpha-1A adrenergic receptor (Homo sapiens, UniProt P35348); format: functional, cell-based
# T2 sequence (P35348 whole entry): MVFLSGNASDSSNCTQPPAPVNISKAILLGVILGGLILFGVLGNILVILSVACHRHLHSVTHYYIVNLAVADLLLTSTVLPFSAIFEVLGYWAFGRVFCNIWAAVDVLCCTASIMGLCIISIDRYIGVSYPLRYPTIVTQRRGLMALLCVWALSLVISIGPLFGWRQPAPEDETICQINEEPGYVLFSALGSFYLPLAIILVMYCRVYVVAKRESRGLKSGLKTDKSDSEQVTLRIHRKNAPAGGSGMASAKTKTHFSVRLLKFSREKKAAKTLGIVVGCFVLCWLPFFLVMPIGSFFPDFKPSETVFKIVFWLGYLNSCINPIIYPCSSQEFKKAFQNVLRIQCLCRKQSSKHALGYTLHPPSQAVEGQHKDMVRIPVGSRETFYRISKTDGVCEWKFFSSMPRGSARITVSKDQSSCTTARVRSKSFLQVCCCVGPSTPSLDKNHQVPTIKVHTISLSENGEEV
# Mu-type opioid receptor = Mu-type opioid receptor (Homo sapiens, UniProt P35372)
# Chain of Mu-type opioid receptor (P35372 whole entry): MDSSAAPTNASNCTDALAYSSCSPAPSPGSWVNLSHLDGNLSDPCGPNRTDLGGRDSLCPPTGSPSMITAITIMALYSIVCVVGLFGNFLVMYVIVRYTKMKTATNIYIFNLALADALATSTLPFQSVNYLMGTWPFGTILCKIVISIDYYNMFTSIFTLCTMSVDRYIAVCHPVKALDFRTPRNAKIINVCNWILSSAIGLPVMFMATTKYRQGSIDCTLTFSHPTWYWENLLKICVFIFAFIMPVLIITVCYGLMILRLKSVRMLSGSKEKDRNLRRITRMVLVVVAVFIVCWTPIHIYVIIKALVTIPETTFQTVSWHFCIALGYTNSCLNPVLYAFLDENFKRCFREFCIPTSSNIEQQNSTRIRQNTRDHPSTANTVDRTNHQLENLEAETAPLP
# [3] = target: 5-hydroxytryptamine receptor 2B (Homo sapiens, UniProt P41595); format: functional, cell-based
# Chain of 5-hydroxytryptamine receptor 2B (P41595 whole entry): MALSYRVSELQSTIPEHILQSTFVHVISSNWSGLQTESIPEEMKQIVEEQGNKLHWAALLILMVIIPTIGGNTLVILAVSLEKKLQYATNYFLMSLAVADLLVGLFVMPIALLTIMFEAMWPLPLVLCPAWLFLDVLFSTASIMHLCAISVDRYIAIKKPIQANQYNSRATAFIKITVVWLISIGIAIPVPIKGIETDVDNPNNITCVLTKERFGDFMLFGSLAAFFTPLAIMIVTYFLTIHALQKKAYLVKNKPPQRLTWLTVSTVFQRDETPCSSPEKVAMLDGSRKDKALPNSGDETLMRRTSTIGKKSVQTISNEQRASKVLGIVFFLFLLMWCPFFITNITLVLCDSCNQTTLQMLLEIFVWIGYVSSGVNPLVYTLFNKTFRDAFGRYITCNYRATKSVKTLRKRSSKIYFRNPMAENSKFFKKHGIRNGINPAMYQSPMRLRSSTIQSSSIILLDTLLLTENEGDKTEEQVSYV
# [4] = target: T3, Type-1 angiotensin II receptor (Homo sapiens, UniProt P30556)
# T3 sequence (P30556 whole entry): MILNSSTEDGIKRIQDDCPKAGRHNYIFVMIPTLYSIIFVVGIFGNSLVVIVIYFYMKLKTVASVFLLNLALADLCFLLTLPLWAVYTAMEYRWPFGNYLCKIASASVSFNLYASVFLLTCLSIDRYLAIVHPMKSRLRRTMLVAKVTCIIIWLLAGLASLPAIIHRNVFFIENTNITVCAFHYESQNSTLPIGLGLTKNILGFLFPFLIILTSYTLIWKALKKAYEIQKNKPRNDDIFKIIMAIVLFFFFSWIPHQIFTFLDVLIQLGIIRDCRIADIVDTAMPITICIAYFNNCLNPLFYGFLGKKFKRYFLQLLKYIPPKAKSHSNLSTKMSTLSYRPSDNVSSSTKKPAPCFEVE
# [5] = target: Gamma-aminobutyric acid receptor subunit alpha-1 (Rattus norvegicus, UniProt P62813); format: functional
# Chain of Gamma-aminobutyric acid receptor subunit alpha-1 (P62813 whole entry): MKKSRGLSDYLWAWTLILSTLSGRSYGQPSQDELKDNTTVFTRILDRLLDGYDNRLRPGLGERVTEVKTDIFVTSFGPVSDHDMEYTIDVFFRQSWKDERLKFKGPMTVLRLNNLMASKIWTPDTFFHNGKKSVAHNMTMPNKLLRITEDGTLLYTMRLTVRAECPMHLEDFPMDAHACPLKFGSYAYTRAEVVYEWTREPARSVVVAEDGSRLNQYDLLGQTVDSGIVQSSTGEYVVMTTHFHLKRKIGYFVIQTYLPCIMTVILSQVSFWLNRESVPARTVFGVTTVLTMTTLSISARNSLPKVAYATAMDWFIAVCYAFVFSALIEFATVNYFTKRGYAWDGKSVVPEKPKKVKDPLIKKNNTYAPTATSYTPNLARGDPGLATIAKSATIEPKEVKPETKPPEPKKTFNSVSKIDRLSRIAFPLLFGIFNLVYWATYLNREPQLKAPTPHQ
# [6] = target: T4, Amine oxidase [flavin-containing] A (Homo sapiens, UniProt P21397); format: functional
# T4 sequence (P21397 whole entry): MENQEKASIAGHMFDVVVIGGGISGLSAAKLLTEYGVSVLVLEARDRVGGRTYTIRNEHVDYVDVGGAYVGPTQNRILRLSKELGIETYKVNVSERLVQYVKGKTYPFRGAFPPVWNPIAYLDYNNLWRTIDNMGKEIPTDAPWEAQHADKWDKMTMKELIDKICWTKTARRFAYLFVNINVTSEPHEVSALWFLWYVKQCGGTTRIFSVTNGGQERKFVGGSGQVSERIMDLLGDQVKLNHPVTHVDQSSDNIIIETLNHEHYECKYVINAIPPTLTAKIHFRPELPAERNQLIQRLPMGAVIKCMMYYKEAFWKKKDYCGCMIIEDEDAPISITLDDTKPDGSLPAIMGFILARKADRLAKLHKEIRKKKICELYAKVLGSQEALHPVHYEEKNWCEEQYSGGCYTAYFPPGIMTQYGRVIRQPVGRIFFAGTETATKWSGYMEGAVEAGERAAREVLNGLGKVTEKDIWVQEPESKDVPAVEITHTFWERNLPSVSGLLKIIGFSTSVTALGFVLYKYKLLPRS
# Cannabinoid receptor 1 = Cannabinoid receptor 1 (Homo sapiens, UniProt P21554)
# Chain of Cannabinoid receptor 1 (P21554 whole entry): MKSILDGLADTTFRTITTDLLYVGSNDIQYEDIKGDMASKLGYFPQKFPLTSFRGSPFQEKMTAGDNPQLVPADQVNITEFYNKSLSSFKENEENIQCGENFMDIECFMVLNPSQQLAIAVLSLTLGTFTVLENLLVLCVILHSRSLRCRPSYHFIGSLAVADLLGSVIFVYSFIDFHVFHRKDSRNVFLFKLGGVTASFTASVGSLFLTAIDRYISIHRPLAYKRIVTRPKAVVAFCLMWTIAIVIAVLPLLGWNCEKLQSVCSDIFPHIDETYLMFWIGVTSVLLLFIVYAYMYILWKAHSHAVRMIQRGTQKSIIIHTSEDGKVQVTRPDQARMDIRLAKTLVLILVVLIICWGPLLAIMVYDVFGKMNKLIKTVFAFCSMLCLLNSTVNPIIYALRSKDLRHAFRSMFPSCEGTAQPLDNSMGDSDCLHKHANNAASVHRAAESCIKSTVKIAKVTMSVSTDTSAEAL
# Melanocortin receptor 4 = Melanocortin receptor 4 (Homo sapiens, UniProt P32245)
# Chain of Melanocortin receptor 4 (P32245 whole entry): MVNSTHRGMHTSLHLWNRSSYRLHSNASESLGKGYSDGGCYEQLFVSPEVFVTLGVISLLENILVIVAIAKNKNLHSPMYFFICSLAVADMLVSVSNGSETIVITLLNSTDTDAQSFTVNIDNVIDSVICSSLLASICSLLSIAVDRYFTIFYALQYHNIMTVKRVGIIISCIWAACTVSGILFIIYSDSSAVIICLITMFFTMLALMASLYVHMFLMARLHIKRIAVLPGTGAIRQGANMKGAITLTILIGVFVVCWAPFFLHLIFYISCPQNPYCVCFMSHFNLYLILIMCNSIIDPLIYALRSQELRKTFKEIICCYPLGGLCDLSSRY
# Vasopressin V1a receptor = Vasopressin V1a receptor (Homo sapiens, UniProt P37288)
# Chain of Vasopressin V1a receptor (P37288 whole entry): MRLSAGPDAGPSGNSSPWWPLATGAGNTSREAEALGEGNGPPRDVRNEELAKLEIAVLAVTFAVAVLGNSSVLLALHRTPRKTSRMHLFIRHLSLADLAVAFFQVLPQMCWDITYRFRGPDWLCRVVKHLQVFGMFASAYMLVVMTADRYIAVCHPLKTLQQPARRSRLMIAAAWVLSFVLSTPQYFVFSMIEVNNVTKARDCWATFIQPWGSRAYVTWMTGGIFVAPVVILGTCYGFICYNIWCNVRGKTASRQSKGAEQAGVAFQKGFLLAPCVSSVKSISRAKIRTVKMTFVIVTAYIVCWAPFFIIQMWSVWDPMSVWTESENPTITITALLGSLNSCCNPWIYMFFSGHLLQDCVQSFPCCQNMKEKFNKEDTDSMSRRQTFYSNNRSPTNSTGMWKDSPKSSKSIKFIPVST
# [7] = target: Beta-2 adrenergic receptor (Homo sapiens, UniProt P07550)
# Chain of Beta-2 adrenergic receptor (P07550 whole entry): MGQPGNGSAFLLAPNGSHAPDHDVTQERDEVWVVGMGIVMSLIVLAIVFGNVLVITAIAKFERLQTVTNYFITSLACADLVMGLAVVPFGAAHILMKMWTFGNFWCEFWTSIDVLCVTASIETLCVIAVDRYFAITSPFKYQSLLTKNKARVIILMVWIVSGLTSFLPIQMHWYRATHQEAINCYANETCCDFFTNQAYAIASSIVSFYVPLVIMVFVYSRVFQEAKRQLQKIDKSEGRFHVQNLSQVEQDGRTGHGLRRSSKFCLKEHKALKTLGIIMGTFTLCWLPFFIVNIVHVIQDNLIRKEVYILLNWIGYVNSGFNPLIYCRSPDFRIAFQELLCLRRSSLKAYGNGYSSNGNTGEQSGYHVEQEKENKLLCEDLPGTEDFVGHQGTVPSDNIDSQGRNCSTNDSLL
# [8] = target: T5, Alpha-2A adrenergic receptor (Homo sapiens, UniProt P08913); format: functional, cell-based
# T5 sequence (P08913 whole entry): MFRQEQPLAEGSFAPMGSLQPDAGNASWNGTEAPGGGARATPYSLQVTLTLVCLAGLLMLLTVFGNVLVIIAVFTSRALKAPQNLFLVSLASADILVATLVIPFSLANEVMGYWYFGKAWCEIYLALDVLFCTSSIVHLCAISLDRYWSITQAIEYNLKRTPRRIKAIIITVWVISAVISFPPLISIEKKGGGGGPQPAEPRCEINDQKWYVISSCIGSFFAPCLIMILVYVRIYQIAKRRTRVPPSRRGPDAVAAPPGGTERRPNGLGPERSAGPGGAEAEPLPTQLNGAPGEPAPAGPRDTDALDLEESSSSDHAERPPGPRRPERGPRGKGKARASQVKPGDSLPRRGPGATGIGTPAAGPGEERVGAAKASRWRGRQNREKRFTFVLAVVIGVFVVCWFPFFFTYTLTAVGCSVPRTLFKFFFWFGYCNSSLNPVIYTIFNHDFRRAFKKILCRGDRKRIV
# Also: assay procedure not described here.
Structure (SMILES),AC50 [1] [µM],AC50 (Vasopressin V2 receptor) [µM],AC50 (Histamine H2 receptor) [µM],AC50 [2] [µM],AC50 (Mu-type opioid receptor) [µM],AC50 [3] [µM],AC50 [4] [µM],AC50 [5] [µM],AC50 [6] [µM],AC50 (Cannabinoid receptor 1) [µM],AC50 (Melanocortin receptor 4) [µM],AC50 (Vasopressin V1a receptor) [µM],AC50 [7] [µM],AC50 [8] [µM]
CC(=O)OCC(=O)[C@@]1(O)CC[C@H]2[C@@H]3CCC4=CC(=O)CC[C@]4(C)C3=CC[C@@]21C [ANECORTAVE ACETATE],> 10,> 10,> 10,> 30,> 30,> 10,> 10,> 10,> 10,> 10,> 10,> 10,> 10,> 10
CCN(CC)C(=O)C1CN2CCc3cc(OC)c(OC)cc3C2CC1OC(C)=O (stereo not given) [BENZQUINAMIDE],> 30,> 30,> 30,> 30,> 30,> 30,> 30,> 30,> 30,> 10,> 10,> 30,> 10,> 30
CCCC(C)(COC(N)=O)COC(=O)NC(C)C (stereo not given) [CARISOPRODOL],> 10,> 30,> 10,> 30,> 30,> 10,> 30,> 10,> 10,> 10,> 30,> 10,> 10,> 10
N[C@H](Cc1cc(I)c(Oc2cc(I)c(O)c(I)c2)c(I)c1)C(=O)O [DEXTROTHYROXINE],> 10,> 30,> 10,> 30,> 30,> 10,> 30,> 10,> 10,> 10,> 30,> 30,> 10,> 10
O=C(O)c1ccccc1Nc1cccc(C(F)(F)F)c1 [FLUFENAMIC ACID],0.54,> 30,> 10,> 30,> 30,> 30,> 30,> 10,> 10,> 10,> 30,> 30,> 10,> 30
CC(=O)Nc1c(I)c(C(=O)N[C@H]2C(O)O[C@H](CO)[C@@H](O)[C@@H]2O)c(I)c(N(C)C(C)=O)c1I (stereo not given in full) [METRIZAMIDE],> 10,> 10,> 10,> 30,> 30,> 10,> 10,> 10,> 10,> 10,> 10,> 10,> 10,> 10
O=C1CN=C(c2ccccc2)c2cc(Cl)ccc2N1 [NORDAZEPAM],> 10,> 30,> 10,> 30,> 10,> 10,> 30,0.049,> 10,> 10,> 30,> 10,> 10,> 10
O=C1Nc2ccc(Cl)cc2C(c2ccccc2)=NC1O (stereo not given) [OXAZEPAM],> 10,> 30,> 10,> 30,> 10,> 10,> 30,0.03,> 10,> 10,> 30,> 10,> 10,> 10
CC1(C)C(C=C(Cl)Cl)C1C(=O)OCc1cccc(Oc2ccccc2)c1 (stereo not given) [PERMETHRIN],> 10,> 10,> 10,–,> 30,> 10,> 10,> 10,> 10,18.2,> 10,> 10,> 10,> 10
